{
  "source": "patent US12622901B2",
  "about": "“Compounds for tau protein degradation” (Dana-Farber Cancer Institute, Inc., priority 2017, dated 2026)",
  "key": {"A152T neurons": {"system": "A152T neurons", "assay": "Neuronal viability / rescue of stress vulnerability to β-amyloid (1-42) peptide", "details": "A152T neurons differentiated 8 weeks, FIG. 7"}, "[1]": {"assay": "Tolerability monitoring of mice for up to 24 hours", "format": "in vivo", "details": "male CD-1 mice, 30 mg/kg intraperitoneal, monitored up to 24 hours", "method": "(§1) To determine whether the compounds of the present disclosure are capable of crossing the blood brain barrier (BBB), a key property for use of these compounds as CNS therapeutics, compound 3 was administered to mice in a pharmacokinetic study of plasma and brain tissue. A stable formulation compatible with chronic administration was prepared prior to administration, and analytical methods for measuring concentration of the compound in plasma and brain tissue were developed. Mice were additionally monitored for tolerability for up to 24 hours."}, "[2]": {"assay": "Dose formulation in 20% PEG400 in water", "format": "physicochemical", "details": "5.00 mg/mL in 20% PEG400 in water", "method": "(§2) For intraperitoneal (IP) dosing, the dose formulation was administered with a dose volume determined by the animals' body weight collected on the morning of dosing day."}, "[3]": {"assay": "In vivo pharmacokinetic study of plasma and brain tissue in mice", "details": "male CD-1 mice, 30 mg/kg intraperitoneal", "method": "as §1\nAnimal Husbandry: Male CD-1 mice were group housed during a 2-3 day acclimation prior to the study at an animal room environment with a controlled environment (target conditions: temperature 18-26° C., relative humidity 30-70%, 12 hours artificial light and 12 hours dark). All animals had access to Certified Rodent Diet and water ad libitum.\nas §2\nSample Collection & Processing:\nBlood Samples: A blood sample (about 0.03 mL per time point) was collected from each mouse into polypropylene tubes at each timepoint. All blood samples were transferred into pre-chilled commercial EDTA-K2 tubes or pre-chilled plastic microcentrifuge tubes containing 2 μL of EDTA-K2 as anti-coagulant and placed on wet ice until centrifugation. Each collected blood sample was centrifuged for 15 minutes at 4° C. and 3000 g for plasma collection. Plasma from each mouse was transferred into a pre-labeled polypropylene tube in dry ice at each time point. After terminal collection, all plasmas were stored at approximately −80° C. until bioanalysis.\nBrain Samples: Whole brain was dissected at each designated time point and rinsed twice cold in deionized water before processing. They were then blotted on filter paper, weighed and homogenized with 5-fold of cold 15 mM PBS/MeOH (V:V, 2:1) using mechanical method. The samples were kept with ice water when homogenizing, and further stored at −80° C. until bioanalysis.\nBioanalytical Method Development: A LC-MS/MS method was developed and used for the quantitative determination of test compound concentration in blood and brain with a calibration curve applied to determine the limits of quantification.\nIn Vivo Sample Analysis: Plasma and brain concentration versus time data along with C^max, Tmax, T1/2, and AUC(0-t) was analyzed by non-compartmental approaches using the Phoenix WinNonlin 6.3 software program."}, "tau protein": {"biological_target": "T1, tau protein (Homo sapiens, UniProt P10636, A469T)", "T1 construct": "cultured human differentiated frontotemporal lobar dementia (FTD) neurons; endogenous in cells; host or cells: human differentiated FTD neurons, tau-A152T (line 19-5-RC6)", "T1 sequence (P10636 1-441 isoform P10636-8 A152T)": "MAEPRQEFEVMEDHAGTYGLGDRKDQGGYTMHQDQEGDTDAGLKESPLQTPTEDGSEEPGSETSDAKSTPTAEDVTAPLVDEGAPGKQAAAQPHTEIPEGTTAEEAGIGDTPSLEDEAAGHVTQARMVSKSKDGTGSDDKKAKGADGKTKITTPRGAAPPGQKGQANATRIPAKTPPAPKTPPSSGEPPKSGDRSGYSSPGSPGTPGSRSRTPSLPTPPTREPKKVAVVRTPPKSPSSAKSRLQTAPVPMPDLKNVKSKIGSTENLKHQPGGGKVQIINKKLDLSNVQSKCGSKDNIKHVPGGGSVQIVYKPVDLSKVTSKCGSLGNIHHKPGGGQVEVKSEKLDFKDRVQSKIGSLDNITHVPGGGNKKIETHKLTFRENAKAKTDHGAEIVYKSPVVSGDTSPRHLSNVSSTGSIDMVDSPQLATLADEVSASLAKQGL", "assay": "Tau degradation assay (western blot) in human tau-A152T neurons", "format": "cell-based", "details": "6-week differentiated A152T neurons; treatment for 24 hours; FIG. 6", "method": "Example compounds 1-12 were evaluated for their ability to degrade tau protein in cultured human differentiated frontotemporal lobar dementia (FTD) neurons. […] For each condition, 1 well of differentiated neuronal cells (6 well-plate) was washed and collected in PBS, pelleted and lysed in RIPA buffer (Boston Bio-Products) with 2% SDS (Sigma), protease inhibitors (Roche Complete Mini tablets), and phosphatase inhibitors (Sigma), followed by sonication in a water sonicator (Bransonic Ultrasonic Baths, Thomas Scientific) for 5 min, and centrifugation at 20,000 g for 15 min. Supernatants were transferred to new tubes, total protein concentration was quantified with the Pierce BCA Protein Assay Kit (Thermo), and SDS-PAGE gels were loaded with 10 μg total protein per well (pre-boiled samples). Western blots were performed with the Novex NuPAGE SDS-PAGE Gel System (Invitrogen). All samples were resolved in 7% Tris-Acetate gels with Tris-Acetate running buffer (Invitrogen). Blots were probed with antibodies against total tau (TAU5) and phosphosrylated tau (Ser396), along with β-actin as a loading control; followed by corresponding HRP-linked secondary antibodies (Cell Signaling Technology), and SuperSignal West Pico Chemiluminescent Substrate (Thermo) detection. Membranes were exposed to autoradiographic film (LabScientific) and films were scanned using an Epson Perfection V800 Photo Scanner. Protein band intensities (pixel mean intensity) were quantified using Adobe Photoshop CS5 Histogram function. Whereas the vehicle alone (DMSO) had no effect on tau, varying degrading activity was observed amongst the compounds, however with overall similar relative levels of degrading activity between tau-A152T neurons and tau-P301L neurons. Compounds were added at the doses indicated of either 0.1, 1, 5, or 10 μM.\nFour-week differentiated neurons, both non-mutant (8330-8) and tau-A152T (19-5-RC6) were employed. The neurons were treated with T807 for 24 hours (at 10 μg/mL=59.4 μM). One well of differentiated neuronal cells (6 well-plate, treated or untreated) was washed and collected in PBS, pelleted and directly lysed in 200 μL of Sample Buffer (New England Biolabs) supplemented with 3X DTT, boiled for 15 min and 10 μL of each lysate was run by SDS-PAGE in a 4-12% Bis-Tris Gel, with MOPS running buffer. Blots were probed with antibodies to total tau (DA9) and phosphorylated tau (Ser396, PHF1, AT8) along with GAPDH as a loading control.\nExample compounds 2-5 were reevaluated for their ability to degrade tau protein in human FTD neurons as well as evaluate their effect on E3 ubiquitin ligases CRBN, VHL, and CHIP (FIG. 4A-E). For each control and treatment, 1 well of differentiated neuronal cells (6 well-plate) was washed and collected in PBS, pelleted and lysed in RIPA buffer (Boston Bio-Products) with 2% SDS (Sigma), protease inhibitors (Roche Complete Mini tablets), and phosphatase inhibitors (Sigma), followed by sonication in a water sonicator (Bransonic Ultrasonic Baths, Thomas Scientific) for 5 min, and centrifugation at 20,000 g for 15 min. Supernatants were transferred to new tubes, total protein concentration was quantified with the Pierce BCA Protein Assay Kit (Thermo), and SDS-PAGE gels were loaded with 10 μg total protein per well (pre-boiled samples). […] Protein band intensities (pixel mean intensity) were quantified using Adobe Photoshop CS5 Histogram function. […]"}},
  "note": "Entries after “also recorded” stand apart in the source; their conditions may differ.",
  "data": [
    {"smiles": "O=C(CCc1ccc2c(c1)[nH]c1ccncc12)NCCOCCOCCNc1cccc2c1C(=O)N(C1CCC(=O)NC1=O)C2=O", "note": "(stereo not shown) [Compound 3, N-(2-(2-(2-((2-(2,6-dioxopiperidin-3-yl)-1,3-dioxoisoindolin-4-yl)amino)ethoxy)ethoxy)ethyl)-3-(5H-pyrido[4,3-b]indol-7-yl)propanamide]", "values": [
      {"measurement": "rescue of stress vulnerability", "setting": "A152T neurons; 8 h pre-treatment, then 10 μM β-amyloid (1-42) peptide for 16 h", "result": "effective at rescuing stress vulnerability"},
      {"measurement": "effect on neuronal viability", "setting": "A152T neurons; compound alone", "result": "no effect on neuronal viability"},
      {"measurement": "tolerability / adverse effects", "setting": "[1]", "result": "no adverse effects were observed; also recorded: well tolerated"},
      {"measurement": "appearance/stability of dose formulation", "setting": "[2]", "result": "clear, stable solution"},
      {"measurement": "brain penetration / crossing the blood-brain barrier", "setting": "[3]; 20% PEG400/water, n=3 per group, 30 mg/kg", "result": "capable of brain penetration; also recorded: capable of crossing the blood-brain barrier"},
      {"measurement": "AUC0-last, Mean Brain", "setting": "[3]; brain", "result": 74.3, "unit": "ng·h/mL"},
      {"measurement": "Cmax, Mean Brain", "setting": "[3]; brain", "result": 56.4, "unit": "ng/mL"},
      {"measurement": "Tmax, Mean Brain", "setting": "[3]; brain", "result": 0.500, "unit": "h"},
      {"measurement": "AUC0-last, Mean Plasma", "setting": "[3]; plasma", "result": 6938, "unit": "ng·h/mL"},
      {"measurement": "Cmax, Mean Plasma", "setting": "[3]; plasma", "result": 4640, "unit": "ng/mL"},
      {"measurement": "T1/2, Mean Plasma", "setting": "[3]; plasma", "result": 7.23, "unit": "h"},
      {"measurement": "Tmax, Mean Plasma", "setting": "[3]; plasma", "result": 1.00, "unit": "h"},
      {"measurement": "dose-dependency of effect on tau", "setting": "tau protein", "result": "dose dependent effect on tau"}
    ]}
  ]
}
